{"source": "PubChem BioAssay AID2695", "about": "(Broad Institute, 2010)", "note": "Results filed as inconclusive are left out. The source made the active and inactive calls.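 Rule for the calls: active = a dose response, with MIC, the lowest growth-blocking dose, below the top tested dose; inconclusive = replicates split around the top dose, or self-fluorescent without titration; inactive = MIC above the top tested dose.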"}
{"tested_on": "C. albicans SC5314 growth, alamar blue fluorescence", "experiment": "C. albicans growth inhibition, dose response, SC5314, Alamar Blue fluorescence (AID 2695)", "details": "6.5 h"}
{"compound": "O=C(O)CN1C(=O)/C(=C\\c2ccc(N3CCCCC3)o2)SC1=S", "MIC": "> 33 µM (inactive)"}
{"compound": "COc1cc(/C=C2/CC/C(=C/c3ccc(O)c(OC)c3)C2=O)ccc1O", "MIC": "> 33 µM (inactive)"}
{"compound": "Cc1ccc(Nc2c(-c3ccc(C)o3)nc3ncccn23)cc1", "MIC": "> 33 µM (inactive)"}
{"compound": "Cc1ccc(C(=O)c2no[n+]([O-])c2C(=O)c2ccc(C)cc2)cc1", "MIC": "16.6 µM"}
{"compound": "COc1cc(/C=C2\\SC(=S)N(NC(=O)c3cccnc3)C2=O)ccc1O", "MIC": "> 33 µM (inactive)"}
{"compound": "CC(=O)c1ccc(Sc2ccccc2)c([N+](=O)[O-])c1", "MIC": "16.6 µM"}
{"compound": "Nc1ncnc2c1ncn2C1OC(CO)CC1O", "note": "(stereo unspecified)", "MIC": "> 33 µM (inactive)"}
{"compound": "O=C(COC(=O)Cc1ccc(S(=O)(=O)N2CCOCC2)s1)NCc1ccc(Cl)cc1", "MIC": "> 33 µM (inactive)"}
{"compound": "N#C/C(=C/c1ccc([N+](=O)[O-])o1)c1nc2ccccc2[nH]1", "MIC": "4.1 µM"}
{"compound": "O=C(Oc1c(-c2ccccc2)c(=O)n2c3c(cccc13)CC2)c1cccc([N+](=O)[O-])c1", "MIC": "> 33 µM (inactive)"}
{"compound": "Cc1ccc(-c2nn3c(C)nnc3s2)cc1NC(=O)CSc1ccc(Cl)cc1", "MIC": "> 33 µM (inactive)"}
{"compound": "N#CC1(C#N)C2=C(CCCC2)NC(c2ccccc2)C1(C#N)C#N", "note": "(stereo unspecified)", "MIC": "> 33 µM (inactive)"}
{"compound": "Cc1ccc2nc(/C(C#N)=C/c3ccc([N+](=O)[O-])o3)[nH]c2c1", "MIC": "2.1 µM"}
{"compound": "COc1cc(/C=C2\\SC(=S)N(NC(=O)c3ccncc3)C2=O)ccc1O", "MIC": "> 33 µM (inactive)"}
{"compound": "COc1cc(/C=C2/SC(=S)N(Cc3ccccc3)C2=O)cc(OC)c1O", "MIC": "17.5 µM"}
{"compound": "CCOc1cc(/C=C2\\N=C(SC(C)C(N)=O)N(c3ccc(OC(F)F)cc3)C2=O)ccc1O", "note": "(stereo unspecified)", "MIC": "> 33 µM (inactive)"}
